Patent publication US20230324392A1, “METHODS AND COMPOSITIONS FOR TARGETING CYTOSOLIC DSDNA SIGNALING IN CHROMOSOMALLY UNSTABLE CANCERS” (MEMORIAL SLOAN KETTERING CANCER CENTER, priority 2020, published 2023)
Values joined by “and” are separate entries in the source; they are usually repeats but may differ in a detail not shown here. Equal values may be shown once.

How the values were obtained:
[1] = test system: B16F10, 4T1, and CT26 cells; experiment: xCELLigence assay for cell invasion; assay type: cell-based, mouse; conditions: C176 at 1 μM; all three metastatic cancer cell lines
Description: xCELLigence assayfor cell invasion: Assessment of the impact of STING inhibition on cell invasion was conducted using the xCELLigence system CIM plates (ACEA Biosciences, San Diego, CA). The upper chamber was coated with 1 mg/ml of growth factor complete Matrigel (#356234, Corning, UK) made up in serum free media (SFM) and incubated at 37° C. for 4 hours to allow polymerisation. A total of 4×10^4 cells in serum-free media were seeded into the upper chamber insert with C176 at 1 μM (Probechem, China) or DMSO control. The lower chamber was filled with complete media. The CIM plates were incubated at 1 hour at 37° C. and 5% C02 for cell attachment. Plates were then monitored using the xCELLigence system. Changes in impedance resulting from cell invasion to the underside of wells were recorded every 15 minutes and monitored for a total of 60 hours.

4T1 cells = experiment: Tail vein inoculation of 4T1 cells in BALB/c mice, survival; assay type: in vivo, mouse; conditions: 4T1, BALB/c, daily IP, vs vehicle
Description: (§1) Animal metastasis studies: Animal experiments were performed in accordance with protocols approved by the MSKCC Institutional Animal Care and Use Committee. […] There was no need to randomize animals. Investigators were not blinded to group allocation. For tail vein injections, 5×10^4 4T1, 2.5×10^4 B16F10, or 10^5 CT26 cells were injected into the tail vein of 6-7-week old BALB/c (4T1 and CT26) or C57BL/6 (B16F10) mice. Metastasis was primarily assessed through overall survival. Overall survival endpoint was met when the mice died or met the criteria for euthanasia under the IACUC protocol. […] Surface lung metastases were assessed at endpoint by direct visual examination after euthanasia at which points lungs were perfused and fixed in 4% paraformaldehyde (4T1 and B16F10 experiments) or stained using India-ink (CT26 experiments). Furthermore, lung metastasis after injection of 4T1 cells was qualitatively assessed using routine hematoxylin and eosin (H&E) staining. […] Primary tumors were surgically excised on day 7 after implantation and metastatic dissemination was assessed by monitoring overall survival or on day 30 through quantification of surface lung metastases upon euthanasia. The length (L) and width (W) of the primary tumors were measured using calipers. Tumor size was calculated according to the following formula: L*W2/2. […]

CT26 cells = experiment: Tail vein inoculation of CT26 cells in BALB/c mice, metastasis and survival; assay type: in vivo, mouse
Description: Animal metastasis studies: Animal experiments were performed in accordance with protocols approved by the MSKCC Institutional Animal Care and Use Committee. […] There was no need to randomize animals. Investigators were not blinded to group allocation. For tail vein injections, 5×10^4 4T1, 2.5×10^4 B16F10, or 10^5 CT26 cells were injected into the tail vein of 6-7-week old BALB/c (4T1 and CT26) or C57BL/6 (B16F10) mice. Metastasis was primarily assessed through overall survival. Overall survival endpoint was met when the mice died or met the criteria for euthanasia under the IACUC protocol. Animals were censored when death was confirmed to have occurred due to metastasis-unrelated causes such as injury or death during injection, surgery, or anesthesia. Surface lung metastases were assessed at endpoint by direct visual examination after euthanasia at which points lungs were perfused and fixed in 4% paraformaldehyde (4T1 and B16F10 experiments) or stained using India-ink (CT26 experiments). […] H-151 was reconstituted in DMSO with concentration of 100 mM. Each mouse was injected intraperitoneally with 7.5 μL of H-151 stock solution in 200 μL of PBS with 0.1% Tween −80.

B16F10 cells = experiment: Tail vein inoculation of B16F10 cells in C57BL/6 mice, survival; assay type: in vivo, mouse
Description: as §1

[2] = test system: B16F10, 4T1 or CT26 cells; experiment: Cell proliferation assay; assay type: cell-based, mouse; conditions: C176 at 1 μM; 12-48 hours
Description: Cell proliferation assay: Cell proliferation was determined by seeding of 5×10^3 B16F10, 4T1 or CT26 cells in 6 well plates in triplicate. Cells were treated with C176 at 1 μM (Probechem, China) or DMSO control. Thereafter cells were counted in triplicate at 12, 24, 36, and 48 hours using trypan blue staining and the EVE™ automated cell counter (NanoEnTek, South Korea).

B16F10, 4T1, and CT26 = experiment: Wound scratch assay for cell migration; assay type: cell-based, mouse; conditions: C176 at 1 μM; all three metastatic cancer cell lines
Description: Wound scratch assay for cell migration: Tumor cell lines B16F10, 4T1, and CT26 were seeded in 6 well plates. When cells reached>90% confluence they were treated with 0.5 μM mitomycin C (M4287, Sigma-Aldrich, St. Louis, MO) for 2 hours, after which a wound was formed using a sterile p200 pipette tip. Thereafter cells were washed once with fresh media, following by treatment with C176 at 1 μM (Probechem, China) or DMSO control in media containing 1% FBS. Images were obtained at 0, 4, 8, and 12 hours using Olympus CKX53 microscope at 4× magnification. The wound surface area was measured and quantified using ImageJ software (MRI Wound Healing tool-dev.mri.cnrs.fr/projects/imagej-macros/wiki/Wound_Healing_Tool).

[3] = Blood chemistry of mice treated with C-176; assay type: in vivo, mouse; conditions: animals 1, 2

Structure (SMILES): O=C(Nc1ccc(I)cc1)c1ccc([N+](=O)[O-])o1 [C-176]
- invasion [1]: significant reductions
- survival of tumor bearing mice (4T1 cells): significantly prolonged survival
- number of CT26 lung metastasis (CT26 cells; 13 days after tail vein injection, daily IP): significant reduction
- survival of tumor bearing mice (CT26 cells; CT26, BALB/c, IP, vs vehicle): significantly prolonged survival
- survival of tumor bearing mice (B16F10 cells; B16F10, C57BL/6, daily IP, vs vehicle): significantly prolonged survival
- treated group with no evidence of disease (B16F10 cells; B16F10-bearing animals, at 98 days): ~30%
- cellular proliferation [2]: did not impact cellular proliferation
- migration (B16F10, 4T1, and CT26): significant reductions
- A/G Ratio [3]: 1.3 and 1.4
- Anion Gap [3]: 26 and 32
- BASELINE CORTISOL [3]: 0.811 and 0.662
- BUN/CREA Ratio [3]: 85.0 and 84.2
- DBIL [3]: 0.0 mg/dL
- GGT [3]: 0 U/L
- IBIL [3]: 0.1
- Na/K [3]: 19 and 16
- TCO2 [3]: 24 mEq/L and 18 mEq/L
- CREA ([3]; reference range 0.2-0.5): 0.20 mg/dL and 0.19 mg/dL
- TBIL ([3]; reference range 0.2-0.6): 0.1 mg/dL
- GLOB ([3]; reference range 1.7-2.2): 2.3 g/dL and 1.9 g/dL
- ALB ([3]; reference range 2.4-4.3): 3.1 g/dL and 2.6 g/dL
- TP ([3]; reference range 4.8-7.2): 5.4 g/dL and 4.5 g/dL
- BUN ([3]; reference range 5.0-28): 17 mg/dL and 16 mg/dL
- K ([3]; reference range 7.3-11.1): 8.1 mEq/L and 9.7 mEq/L
- Ca ([3]; reference range 9.5-12.5): 10.0 mg/dL and 9.9 mg/dL
- ALT ([3]; reference range 27-195): 26 U/L and 32 U/L
- AST ([3]; reference range 54-77): 134 U/L and 69 U/L
- CHOL ([3]; reference range 55-169): 103 mg/dL and 93 mg/dL
- TRIG ([3]; reference range 67-289): 82 mg/dL and 80 mg/dL
- ALP ([3]; reference range 105-370): 61 U/L and 40 U/L
- CL ([3]; reference range 111-134): 115 mEq/L and 113 mEq/L
- Na ([3]; reference range 145-181): 157 mEq/L and 153 mEq/L
- GLU ([3]; reference range 172-372): 205 mg/dL and 210 mg/dL
